From patent US10889553B2, “Asymmetric triazole benzamide derivatives and the compositions and methods of treatment regarding the same” (NysnoBio Ireland DAC, priority 2017, dated 2021)
Where “and” joins values, the source holds several entries; their conditions need not be identical. Equal values may be shown once.

Each molecule was assayed against T1, Parkin ligase (Homo sapiens, UniProt O60260) (assay: Activity-Based Probe Assay using Ubiquitin vinyl sulfone probe (TR-FRET)). Details: heat activated Parkin, HA-Ub-VS probe, activation EC50; read-out: Probe Assay EC50 (μM) [Example 2].
T1 sequence (O60260 1-465): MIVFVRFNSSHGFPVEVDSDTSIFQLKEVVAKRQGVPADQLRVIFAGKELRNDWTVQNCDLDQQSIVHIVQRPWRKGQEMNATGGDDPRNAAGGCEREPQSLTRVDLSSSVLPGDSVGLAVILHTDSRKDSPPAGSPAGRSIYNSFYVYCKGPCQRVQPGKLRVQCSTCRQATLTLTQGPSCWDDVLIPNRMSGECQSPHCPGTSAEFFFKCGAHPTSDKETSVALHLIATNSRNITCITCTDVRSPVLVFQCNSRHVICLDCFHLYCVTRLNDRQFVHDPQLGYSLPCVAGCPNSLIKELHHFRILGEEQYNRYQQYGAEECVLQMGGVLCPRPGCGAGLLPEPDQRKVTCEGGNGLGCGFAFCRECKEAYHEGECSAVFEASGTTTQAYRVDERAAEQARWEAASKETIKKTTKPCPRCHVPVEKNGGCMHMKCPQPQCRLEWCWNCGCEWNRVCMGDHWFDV
Type: biochemical
Description: An Ubiquitin vinyl sulfone probe can be used that irreversibly binds to the active site cysteine of Parkin ligase. Covalent attachment of the probe to the Parkin can be monitored by TR-FRET. Candidate activator compounds can be identified by increasing the activity of Parkin ligase due to an increase in TR-FRET signal. Screening for activating compounds can be distinguished from the controls as follows: 100% activation signal=Heat activated Parkin+100 nM control activator in DMSO. 0% activation signal=Heat activated Parkin+DMSO only. Parkin activators can be identified by an increase of the 0% activation signal TR-FRET signal. Assay Conditions: Materials: • Assay Plate: White 384 well plate (Corning 3572) • Enzyme: Parkin-His tagged 203 μM (10.5 mg/ml) • Probe: Ubiquitin vinyl-sulfone (HA-Ub-VS Boston Biochem U-212) • DMSO: DMSO (Sigma cat #D4540-100ML) • Reaction Buffer: 50 mM HEPES (pH 8.5), 150 mM NaCl, 0.01% Tween 20, 0.1% BSA • Detection Buffer: 50 mM HEPES (pH 8.5), 150 mM NaCl, 0.01% Tween 20, 0.1% BSA, 800 mM KF • Detection Reagent A: 2.6 nM Anti-6HIS-Eu cryptate and 40 nM Anti-HA-XL665 in detection buffer • Eu cryptate: Anti-6HIS-Eu cryptate (CisBio 61HISKLA) • XL665: Anti-HA-XL665 (CisBio 610HAXLA) Enzyme Reaction (15 Min Pre Incubation Parkin with Activator Only) • Parkin: 40 nM • HA-Ub-VS Probe: 70 nM • Activator/DMSO: 2× Activator/2% DMSO Reaction time: 60 minutes Temperature: 22° C. Total volume: 10 μl reaction Detection Reaction Take […] of Enzyme Reaction above and add 10 μl detection Reagent A under the following conditions: • Reaction time: 60 minutes • Temperature: 22° C. • Total volume: 20 μl
Assay procedure (Using HP D-300 compound dispenser and Bravo for the operation):
1) Heat activate Parkin in reaction buffer (500 μl/1.5 ml tube: Eppendorf Thermomixer 5 minutes, 400 rpm at 58° C. and put on ice until needed).
2) Load assay plate wells with 4.8 μl 84.5 nM Parkin in reaction buffer by use of Bravo.
3) Deliver 0.2 μl 200× activator candidates in DMSO by use of HP D-300 compound dispenser. Highest 200× concentration=[…] and then twofold dilutions.
4) Spin 1000 rpm, 2 minutes, at room temp.
5) Incubate plate for 15 minutes at room temp.
6) Add 5 μl 140 nM HA-Ub-VS Probe in reaction buffer by use of Bravo.
7) Spin 1000 rpm, 2 minutes, at room temp.
8) Incubate plate for 60 minutes at room temp.
9) Add 10 μl 2.6 nM Anti-6HIS-Eu cryptate and 40 nM […] in detection buffer.
10) Spin 1000 rpm, 2 minutes, at room temp.
11) Incubate plate for 60 minutes at room temp.
12) Read plates on Perkin Elmer Envision instrument with the following parameters:
LANCE dual laser protocol loaded into the Envision® software
Top Mirror: LANCE/DELFIA Duel/Bias (Bar code 446)
Emission Filter: APC 665 EM (Bar code 205)
2nd Emission Filter: Europium 615 EM (Bar code 203)
Read 655 nm (channel 1) and 615 nm (channel 2) wavelengths on Envision®
Data Analysis: The Data can be read in CSV files. There are two tables in those CSV files, which are the values of 655 nm (channel 1) and 615 nm (channel 2) wavelengths respectively. The data is converted to an HTRF Ratio=(Channel 1/Channel 2)*10,000
The average of all the 0 μM controls (DMSO only)=BKGD (Background—0% activation). Subtract BKGD from each HTRF Ratio value=HTRF−BKGD. The average of all the […] 100 nM control activator in DMSO controls=Max (100% activation). The following equation is then used to calculate % Activation for each well/candidate as follows: % Activation=(HTRF−BKGD/Max)*100.
Graphpad Prism was used with Transform X values: X=Log(X) and nonlinear regression (dose-response-stimulation): Log(agonist) vs Response−variable slope (four parameters) with constrains set to Bottom=0 and Top=100.
The Activity-Based Probe Assay was performed with various compounds in Tables 1, 2, 3A and 3B.

First: Cc1ccccc1C(=O)N(C(=O)c1ccccc1)c1nc(N)n(-c2ccccc2)n1 [Compound 148]
Second: Cc1ccccc1C(=O)Nc1nc(N[C@@H](C)c2ccccc2)nn1-c1ccccc1 [Compound 115]
The EC50 of the first is higher: > 100 µM for the first, 3 µM for the second.

`COc1ccccc1CNc1nc(NC(=O)c2ccccc2C)n(-c2ccc(OC(F)(F)F)cc2)n1` [Compound 111] and `COc1cccc(CNc2nc(NC(=O)c3ccccc3C)n(-c3ccc(OC(F)(F)F)cc3)n2)c1` [Compound 110] are the same in EC50: 2 µM for the first, 2 µM for the second.

Going from `Cc1ccccc1C(=O)Nc1nc(N[C@@H](C)c2ccccc2)nn1-c1ccc(C(F)(F)F)cc1` [Compound 120] to `Cc1ccccc1C(=O)Nc1nc(N[C@@H](C)c2ccccc2)nn1-c1ccc(OC(F)(F)F)cc1` [Compound 117], the EC50 rises from 1 µM to 2 µM (2-fold).

Going from `Cc1ccccc1C(=O)Nc1nc(NC(=O)c2ccccc2C)n(-c2cnn(C)c2)n1` [Compound 47] to `Cc1ccccc1C(=O)Nc1nc(NC(=O)c2ccccc2C)n(-c2ccc(N3CCN(C)CC3)cc2)n1` [Compound 68], the EC50 rises from 16 µM to 24 µM (1.5-fold). The first is the more potent here.

`Cc1ccccc1C(=O)Nc1nc(NC(=O)C2CCN(CCC#N)CC2)nn1-c1ccccc1` [Compound 45] and `Cc1ccccc1C(=O)Nc1nc(NC(=O)C2CCCNC2)nn1-c1ccccc1` (stereo not drawn) [Compound 19] cannot be ordered by EC50: > 100 µM for the first, > 100 µM for the second.

Compared with `Cc1ccccc1C(=O)Nc1nc(NC(=O)c2ccncc2)nn1-c1ccc(Cl)cc1` [Compound 92], `Cc1ccccc1C(=O)Nc1nc(NC(=O)c2cccnc2)nn1-c1ccc(Cl)cc1` [Compound 95] is 2-fold higher in EC50: 2 µM for the first, 4 µM for the second.

Going from `c1ccc(-n2nc(NCCc3ccccn3)nc2NCCc2ccccn2)cc1` [Compound 145] to `Cc1ccccc1C(=O)Nc1nc(NCCc2ccccn2)nn1-c1ccccc1` [Compound 97], the EC50 falls from > 100 µM to 14 µM.

Compared with `C#Cc1ccc(C(=O)Nc2nc(NC(=O)c3cccc(N=[N+]=[N-])c3)nn2-c2ccccc2)cc1` [Compound 48], `Cc1ccccc1C(=O)Nc1nc(NC(=O)c2ccc(N=[N+]=[N-])cc2)n(-c2ccccc2)n1` [Compound 70] is 2-fold higher in EC50: 2 µM for the first, 4 µM for the second.

First: O=C(Nc1nc(NC(=O)c2cccnc2)n(-c2ccc(Cl)cc2)n1)c1cccnc1 [Compound 81]
Second: O=C(Nc1nc(NC(=O)c2cccnc2)n(-c2cccc(F)c2)n1)c1cccnc1 [Compound 72]
The EC50 of the first is 1.5-fold higher: 3 µM for the first, 2 µM for the second.

Compared with `Cc1ccccc1C(=O)Nc1nc(NC(=O)c2cccnc2)nn1-c1ccc(OC(F)(F)F)cc1` [Compound 86], `Cc1ccccc1C(=O)Nc1nc(NC(=O)c2ccncc2)nn1-c1ccc(OC(F)(F)F)cc1` [Compound 80] is 2-fold lower in EC50: 6 µM for the first, 3 µM for the second.

`O=S(=O)(Nc1nc(NS(=O)(=O)c2ccccc2)n(-c2ccccc2)n1)c1ccccc1` [Compound 83] and `c1ccc(CCNc2nc(NCCc3ccccc3)n(-c3ccccc3)n2)cc1` [Compound 143] cannot be ordered by EC50: > 100 µM for the first, > 100 µM for the second.

First: Cc1ccccc1C(=O)Nc1nc(NC(=O)C2CCCCN2)nn1-c1ccccc1 (stereo not drawn) [Compound 51]
Second: Cc1ccccc1C(=O)Nc1nc(NC(=O)C2CCCN2)n(-c2ccccc2)n1 (stereo not drawn) [Compound 15]
The EC50 of the first is lower: 84 µM for the first, > 100 µM for the second.

`O=C(Nc1nc(NC(=O)C2CCCCN2)n(-c2ccccc2)n1)C1CCCCN1` (stereo not drawn) [Compound 49] and `Cc1ccccc1C(=O)Nc1nc(NC(=O)C2CNC2)nn1-c1ccccc1` [Compound 43] cannot be ordered by EC50: > 100 µM for the first, > 100 µM for the second.

Going from `O=C(Nc1nc(NC(=O)c2ccncc2)n(-c2ccc(Cl)cc2)n1)c1ccncc1` [Compound 82] to `Cc1ccccc1C(=O)Nc1nc(NC(=O)c2ccncc2)nn1-c1ccc(C(F)(F)F)cc1` [Compound 85], the EC50 rises from 2 µM to 3 µM (1.5-fold). The first is the more potent here.

First: Cc1ccccc1C(=O)Nc1nc(NC(=O)c2cn(C)cn2)n(-c2ccccc2)n1 [Compound 22]
Second: Cc1ccccc1C(=O)Nc1nc(NC(=O)c2c(F)cccc2F)nn1-c1ccccc1 [Compound 119]
The EC50 of the first is higher: > 100 µM for the first, 2 µM for the second.

`Cc1ccccc1C(=O)Nc1nc(NCCc2ccccc2)nn1-c1ccc(Cl)cc1` [Compound 109] and `Cc1ccccc1C(=O)Nc1nc(NCCc2ccccc2)nn1-c1ccc(C(F)(F)F)cc1` [Compound 103] are the same in EC50: 1 µM for the first, 1 µM for the second.

Compared with `Cc1ccccc1C(=O)Nc1nc(NCCc2ccccc2)nn1-c1ccc(OC(F)(F)F)cc1` [Compound 106], `Cc1ccccc1C(=O)Nc1nc(NCCc2ccccc2)nn1-c1ccccc1` [Compound 91] is lower in EC50: > 100 µM for the first, 2 µM for the second. The second is the more potent here.

First: Cc1ccccc1C(=O)Nc1nc(NC(=O)c2ccccc2C)n(-c2ccc(N3CCOCC3)cc2)n1 [Compound 54]
Second: Cc1ccccc1C(=O)Nc1nc(NC(=O)c2ccccc2C)n(-c2ccc(N3CCNCC3)cc2)n1 [Compound 57]
The EC50 of the first is lower: 10 µM for the first, > 100 µM for the second.

Compared with `Cc1ccccc1C(=O)Nc1nc(-c2cccc[n+]2[O-])nn1-c1ccccc1` [Compound 130], `Cc1ccccc1C(=O)Nc1nc(NCc2ccccn2)nn1-c1ccccc1` [Compound 101] is 3.6-fold higher in EC50: 5 µM for the first, 18 µM for the second.

Going from `Cc1ccccc1C(=O)Nc1nc(-c2ncccc2C)nn1-c1ccc(OC(F)(F)F)cc1` [Compound 139] to `Cc1ccccc1C(=O)Nc1nc(-c2ncccc2C)nn1-c1ccc(Cl)cc1` [Compound 142], the EC50 falls from 0.9 µM to 0.3 µM (3-fold).

First: CCc1ccccc1C(=O)Nc1nc(NC(=O)c2ccccc2CC)n(-c2ccccc2)n1 [Compound 88]
Second: Cc1ccccc1C(=O)Nc1nc(N[C@H](C)c2ccccc2)nn1-c1ccccc1 [Compound 114]
The EC50 of the first is 2.5-fold higher: 5 µM for the first, 2 µM for the second. The second is the more potent here.

First: Cc1cncc(F)c1C(=O)Nc1nc(NC(=O)c2c(C)cncc2F)n(-c2ccccc2)n1 [Compound 93]
Second: O=C(Nc1nc(NC(=O)c2c(F)c(F)c(F)c(F)c2F)n(-c2ccccc2)n1)c1ccccc1 [Compound 55]
The EC50 of the first is higher: > 100 µM for the first, 12 µM for the second.

`Cc1ccccc1C(=O)Nc1nc(-c2ccc(F)cn2)nn1-c1ccccc1` [Compound 50] and `Cc1ccccc1C(=O)Nc1nc(-c2cscn2)nn1-c1ccccc1` [Compound 135] cannot be ordered by EC50: > 100 µM for the first, > 100 µM for the second.

Going from `O=C(Nc1ccccc1)c1nc(C(=O)Nc2ccccc2)n(-c2ccccc2)n1` [Compound 90] to `O=C(Nc1nc(Nc2cccc3ccccc23)n(-c2ccccc2)n1)c1ccccc1` [Compound 52], the EC50 falls from > 100 µM to 61 µM. The second is the more potent here.

First: Cc1ccccc1C(=O)Nc1nc(NC(=O)c2cccc(N=[N+]=[N-])c2)nn1-c1ccc(OC(F)(F)F)cc1 [Compound 77]
Second: Cc1ccccc1C(=O)Nc1nc(NC(=O)c2ccc(N=[N+]=N)cc2)n(-c2ccc(OC(F)(F)F)cc2)n1 [Compound 74]
The EC50 of the first is 6.7-fold higher: 6 µM for the first, 0.9 µM for the second.

In the case of `Cc1ccccc1C(=O)Nc1nc(NC(=O)[C@@H]2C[C@@H](F)CN2)nn1-c1ccccc1` [Compound 4], the EC50 is reported as 38 µM and 24 µM.
